Reference: patent publication US6696436B1, “B-homoestra-1,3,5(10)-trienes as modulators of tubulin polymerization” (The United States of America as represented by the …, priority 1999, dated 2004)
“Also recorded” adds a separate entry of the source.

How the values were obtained:
[1] = tested on: chick embryo chorioallantoic membrane; assay: Chick embryo chorioallantoic membrane (CAM) assay; format: in vivo; settings: 100 mg disk, after 48 hours
Procedure: Anti-angiogenic activity is evaluated in vivo by testing the ability of a compound to inhibit the proliferation of new blood vessel cells (angiogenesis). A suitable assay is the chick embryo chorioallantoic membrane (CAM) assay described by Crum et al., Science 230:1375 (1985). See also, U.S. Pat. No. 5,001,116, which is hereby incorporated by reference in its entirety. Briefly, fertilized chick embryos are removed from their shell on day 3 or 4, and a methylcellulose disc containing the drug is implanted on the chorioallantoic membrane. The embryos are examined 48 hours later and, if a clear avascular zone appears around the disc, the diameter of that zone is measured.

tubulin polymer [2] = assay: Inhibition of [3H]paclitaxel binding to tubulin polymer
tubulin [3] = tested on: T1, tubulin; assay: Tubulin polymerization inhibition in vitro (turbidity at 350 nm); format: biochemical; parameters: key: *: Accelerates tubulin polymerization; settings: no IC50 derivable
T1 construct: Activity in room temperature assay; other: no polymerization in the absence of drug; other: GTP-only system, critical concentrations

tubulin [4] = tested on: T1, tubulin; assay: Room temperature tubulin assembly assay (favorable reaction conditions, glutamate-dependent); format: biochemical; settings: no polymerization in the absence of drug
Procedure: Previous observations with paclitaxel analogs indicate that differences between compounds are magnified in restrictive reaction conditions and minimized in favorable reaction conditions. […] However, under favorable reaction conditions (room temperature) the quantitative difference between paclitaxel and sarcodictyin A was only 2.5-fold. […] The critical concentration with 10 μM sarcodictyin A under the reaction conditions shown in FIG. 6B is 1.0 mg/ml in the GTP-only system.

tubulin [5] = tested on: T1, tubulin; assay: Enhancement of glutamate- or MAP-induced tubulin assembly, turbidimetric curves (FIGS. 4 and 5); format: biochemical; settings: for Effect on MAP-induced tubulin assembly: 0.75 mg/ml MAPs, 1.0 mg/ml tubulin, 25° C.
Procedure: In those cases where acceleration of tubulin polymerization is observed, an IC50 value for inhibition of polymerization is of course not derivable. Results for such compounds may be presented in the form of turbidimetric curves, e.g. as presented in FIGS. 4 and 5 for representative compounds 13 and 18.
FIG. 4: Each reaction mixture contained 0.8 M glutamate (pH 6.6), 0.4 mM GTP, 12 μM (1.2 mg/ml) tubulin, 4% (v/v) dimethyl sulfoxide, and compound 13 or 18 as indicated. Baselines were established at 0°, and at time zero the temperature controller was set at 26°. At the time indicated by the dashed line, the temperature controller was set at 0°. A. Curve 1, no drug; curve 2, 2 μM compound 13; curve 3, 5 μM 7; curve 4, 10 μM 7; curve 5, 40 μM 7; curve 6, 40 μM 14. B. Curve 1, no drug; curve 2, 2 μM compound 18; curve 3, 5 μM 18; curve 4, 10 μM 18; curve 5, 40 μM 18.
FIG. 5: Each reaction mixture contained 0.1 M Mes (pH 6.9 with NaOH in 0.5 M stock solution), 0.1 mM GTP, 10 μM (1.0 mg/ml) tubulin, 0.75 mg/ml heat-treated MAPs, 4% dimethyl sulfoxide, and drug as indicated. […] There was no change in turbidity in any reaction mixture. At this point the temperature controller was set at 10°, and subsequent temperature changes, as indicated, were made at the times indicated by the vertical dashed lines. Curve 1, no drug; curve 2, 10 μM paclitaxel; curve 3, 10 μM compound 13; curve 4, 20 μM 7; curve 5, 40 μM 7; curve 6, 10 μM compound 18.

tubulin [6] = tested on: T2, tubulin; assay: Tubulin polymerization inhibition in vitro (turbidity at 350 nm); format: biochemical
T2 construct: other: 1.0 M glutamate, 10 μM tubulin; Effect on tubulin polymerization / microtubule assembly
Procedure: Microtubule assembly is followed in a temperature controlled recording spectrophotometer. For details and a discussion, see R. D'Amato et al., Proc Natl Acad Sci USA, 91:3964-3968 (1994).
A typical reaction mixture, which will have a final reaction volume of […], contains 1.0 M monosodium glutamate (pH 6.6), 1.0 mg/ml (10 μM) tubulin, 1.0 MM MgCl2, 4% (v/v) dimethylsulfoxide, and a compound to be tested at the desired concentration (typically 0.1 to 100 μM). The reaction mixtures are incubated for 15 min. at 37° C. and then chilled on ice. After addition of 10 μl 12.5 mM GTP (and, optionally, 0.33 mg/ml microtubule-associated proteins, or MAPs) to initiate polymerization, each reaction mixture is transferred to a cuvette at 0° C., and a baseline established. At time zero, the temperature controller of the spectrophotometer is set to a target temperature, typically between 25 and 37° C. Microtubule assembly is monitored by observing an increase in turbidity at 350 nm as the temperature of the reaction mixture rises to the set target temperature.
The results are presented in Table 1 as IC50 values (μM) for inhibition of tubulin polymerization. Alternatively, inhibition of microtubule assembly can be detected by transmission electron microscopy, as described in U.S. Pat. No. 5,504,074 which is hereby incorporated by reference in its entirety.

tubulin [7] = tested on: T1, tubulin; assay: Enhancement of glutamate- or MAP-induced tubulin assembly, turbidimetric curves (FIGS. 4 and 5); format: biochemical; settings: for Assembly reaction when either MAPs or GTP was omitted: 10 μM tubulin, 40 μM compound 13 or 10 μM paclitaxel
tubulin [8] = tested on: T1, tubulin; assay: Polymer morphology by electron microscopy; format: biochemical; settings: for Cold stable microtubules after return to 0° C. for 15 min: 40 μM 13 or 10 μM paclitaxel
Excerpt: It was possible that compounds 13 and 18 were not actually acting like paclitaxel in enhancing microtubule assembly and in stabilizing the microtubules formed in the course of the turbidity studies shown in FIG. 4, but that these agents were causing formation of polymers of aberrant morphology and temperature stability different from microtubules, such as occurs with vinca alkaloids. Polymer morphology was examined by electron microscopy. […] Even more important, when the reaction mixtures were returned to 0° C. for 15 min, no microtubules were visualized on grids prepared from the reaction mixture without drug.

tubulin [9] = tested on: T1, tubulin; assay: Critical concentration of tubulin for assembly, turbidimetric (FIG. 6); format: biochemical; settings: for Critical concentration of tubulin, MAP- and GTP-dependent assembly / Critical concentration of tubulin, GTP-dependent, MAP-independent assembly: 30° C., 10 μM drug; for Critical concentration of tubulin, MAP- and GTP-dependent assembly: MAPs:tubulin 1:3 by weight; for Critical concentration of tubulin, GTP-dependent, MAP-independent assembly: no MAPs
Procedure: FIG. 6 presents critical concentrations, obtained at 30° C., of tubulin with paclitaxel and compound 13. A: MAPs -and GTP-dependent assembly without drug and in the presence of 10 μM paclitaxel or 10 μM 13. B: GTP-dependent, MAP-independent assembly with 10 μM paclitaxel or 10 μM 13.
Measurement of the critical concentration with and without MAPs with paclitaxel, and again with 13, was therefore carried out to provide some idea of the comparative activity of these agents. The data are presented in FIG. 6, which yield critical concentrations, obtained at 30° C., of 1.4, 0.06, and 0.50 mg/ml for MAP-and GTP-dependent assembly without drug and in the presence of 10 μM paclitaxel or 10 μM 13, respectively, and 0.20 and 1.4 mg/ml for GTP-dependent, MAP-independent assembly with 10 μM paclitaxel or 10 μM 13. […] (A constant weight ratio of MAPs to tubulin of 1:3 was used, because the suboptimal concentration of MAPs caused greater differences in the critical concentrations obtained.) Reaction mixtures (0.25 ml) contained 0.1 M Mes (pH 6.9), 100 μM GTP, 4% dimethyl sulfoxide, the indicated tubulin concentration (with heat-treated MAPs in 1:3 weight ratio to the tubulin, panel A only), and either 10 μM paclitaxel (▴), 10 μM compound 13 (◯), or no drug (▾). Cuvette contents were equilibrated at 0°, drugs were added, temperature was jumped to 30° (about one min), and the turbidity changes after a 20 min incubation measured.

tubulin [10] = tested on: T1, tubulin; settings: favorable reaction conditions (room temperature); cited from earlier work
tubulin polymer [11] = settings: cited from earlier work
[12] = GTP-only system, critical concentrations

Compound: COc1cc2c(cc1O)CC[C@@H]1[C@@H]2CC[C@]2(C)[C@@H](O)CC[C@@H]12 [2-methoxyestradiol]
- Inhibition of cell mitosis and growth of new blood vessels [1]: inhibit cell mitosis and the growth of new blood vessels

Compound: CCOc1cc2c(cc1OC(C)=O)C(=O)CC[C@@H]1[C@@H]2CC[C@]2(C)[C@@H](OC(C)=O)CC[C@@H]12 [Compound 13, B-Homo-3,17β-diacetoxy-2-ethoxyestra-1,3,5(10)-triene-6-one]
- Inhibition of [3H]paclitaxel binding to tubulin polymer (tubulin polymer [2]): only minimally inhibits
- Maximal inhibition of [3H]paclitaxel binding to tubulin polymer (tubulin polymer [2]): about 20%
- Tubulin polymerization inhibition, symbol instead of IC50 (tubulin [3]): *
- Activity in room temperature assay (tubulin [4]): inactive
- Effect on glutamate- and MAP-induced tubulin assembly (tubulin [5]): paclitaxel-like properties
- Effect on MAP-induced tubulin assembly (tubulin [5]): enhanced tubulin assembly; also recorded: significantly less than that of paclitaxel
- Effect on tubulin polymerization / microtubule assembly (tubulin [6]): stimulate microtubule assembly
- Tubulin assembly in the absence of GTP (tubulin [7]): has not been observed; also recorded: not without GTP
- Assembly reaction when either MAPs or GTP was omitted (tubulin [7]): no reaction occurred
- Microtubules formed, seen by electron microscopy (tubulin [8]): abundant microtubules were formed that were indistinguishable from those formed in the absence of drug
- Cold stable microtubules after return to 0° C. for 15 min (tubulin [8]): abundant cold stable microtubules were observed
- Assembly of microtubules without MAPs (tubulin [9]; 10 μM 13, 40 μM tubulin): assembly of microtubules was observed without MAPs
- Critical concentration of tubulin, MAP- and GTP-dependent assembly (tubulin [9]): 0.50 mg/mL
- Critical concentration of tubulin, GTP-dependent, MAP-independent assembly (tubulin [9]): 1.4 mg/mL

Compound: CCOc1cc2c(cc1O)C(=O)CC[C@@H]1[C@@H]2CC[C@]2(C)[C@@H](OC(C)=O)CC[C@@H]12 [Compound 18, B-Homo-17β-acetoxy-2-ethoxy-3-hydroxyestra-1,3,5(10)-trien-6-one]
- Tubulin polymerization inhibition, symbol instead of IC50 (tubulin [3]): *
- Effect on glutamate- and MAP-induced tubulin assembly (tubulin [5]): activity was largely retained
- Effect on MAP-induced tubulin assembly (tubulin [5]): enhanced tubulin assembly; also recorded: less stimulatory than 13; also recorded: significantly less than that of paclitaxel
- Effect on tubulin polymerization / microtubule assembly (tubulin [6]): stimulate microtubule assembly
- Tubulin assembly in the absence of GTP (tubulin [7]): has not been observed

Compound: CC(=O)O[C@H]1C(=O)[C@@]2(C)[C@H]([C@H](OC(=O)c3ccccc3)[C@]3(O)C[C@H](OC(=O)[C@H](O)[C@@H](NC(=O)c4ccccc4)c4ccccc4)C(C)=C1C3(C)C)[C@]1(OC(C)=O)CO[C@@H]1C[C@@H]2O [paclitaxel, Paclitaxel, reference compound]
- Effect on MAP-induced tubulin assembly (tubulin [5]): much more extensive than that with compound 13
- Assembly reaction when either MAPs or GTP was omitted (tubulin [7]): a reaction was observed in both cases
- Cold stable microtubules after return to 0° C. for 15 min (tubulin [8]): abundant cold stable microtubules were observed
- Critical concentration of tubulin, MAP- and GTP-dependent assembly (tubulin [9]): 0.06 mg/mL
- Critical concentration of tubulin, GTP-dependent, MAP-independent assembly (tubulin [9]): 0.20 mg/mL
- Affinity for tubulin polymers relative to compound 13 (tubulin [9]; from critical concentrations): 7-8 fold

Compound: COC(=O)/C1=C/[C@@H]2[C@@H](C(C)C)CC=C(C)[C@@H]2C[C@H](OC(=O)/C=C/c2cn(C)cn2)[C@]2(C)C=C[C@@]1(O)O2 [sarcodictyin A]
- Quantitative difference between paclitaxel and sarcodictyin A (tubulin [10]): 2.5 fold
- Inhibition of paclitaxel binding to tubulin polymer (tubulin polymer [11]): only weakly inhibits
- Critical concentration of tubulin, GTP-dependent, MAP-independent assembly (tubulin [9]): 1.0 mg/mL
- Activity relative to compound 13 (% more active) (tubulin [9]; [12]): 40%
- Activity relative to paclitaxel (fold less active) (tubulin [9]; [12]): about 5 fold
